Laboratory results as given in patent publication US20080292616A1, “Topical Formulations of Histone Deacetylase Inhibitors and Methods Using the Same” (Government of the United of America, Represented by the …, priority 2005, published 2008).

Tests used:
[1] = intravenous infusion over 4 hours on days 1 and 5 of a 21-day cycle; cited from earlier work
rabbits = assay: Topical tolerability study in rabbits, three times weekly for 4 weeks (Example 2); assay type: in vivo, rabbit
Description: The dose used is again 2.5/mg/kg/d (30 mg/m2/d) FR901228 or vehicle in AC, but is applied topically, 4 hrs. a day, for 4 weeks, three times weekly. The study parameters include weekly clinical pathology and histopathology takes place at days 27 and 41. The compositions are applied to substantially all of the rabbit's back. In the case of a human patient or other diseased subject, the composition can be applied to disease-affected and/or non-affected surface areas.

[2] = system: New Zealand white rabbits; assay: Topical toxicity study in rabbits, 4 hours daily application (Example 1); details: 2.5 mg/kg topically for 14 days
Description: A study uses New Zealand white rabbits to determine topical toxicity of the depsipeptide FR901228 when applied topically in either Cetaphil° lotion (CL) or Aquaphor cream (AC).
The dose of depsipeptide is 2.5 mg/kg/day (30 mg/m2/d); controls receive vehicle (Aquaphor or Cetaphil) in place of depsipeptide. A highly intense dosing regimen is employed to study toxicity. The study is designed for application of the respective topical composition to the rabbits for 4 hours daily for 28 days. The four-hour application is accomplished by removing the applied composition approximately four hours after application. Four groups of rabbits (2 rabbits/sex/group) are used with two control and two experimental groups. The control groups receive carrier alone (CL or AC) and the experimental groups receive FR901228 in the respective carriers. The experimental parameters include weekly testing of clinical pathology and plasma drug levels. Histopathology is performed at days 15 and 28.

[3] = FR901228 in AC, 2.5 mg/kg/d topical, 4 hrs a day, 4 weeks

For C/C=C1\NC(=O)[C@H]2CSSCC/C=C/[C@H](CC(=O)N[C@H](C(C)C)C(=O)N2)OC(=O)[C@H](C(C)C)NC1=O [FR901228, (E)-(1S, 4S, 10S, 21R)-7-[(Z)-ethylidene]-4,21-diisopropyl-2-oxa-12,13-dithia-5,8,20,23-tetraazabicyclo [8,7,6]-tricos-16-ene-3,6,19,22-pentanone], the maximum tolerated dose [1] is given as 17.8 mg/m2, the Draize scoring (rabbits; [3]) is given as “slight to well-defined” and the “onset of red skin at the application site” value (rabbits; [3]) is given as 9 days. For the same compound, the “pathology: microscopic lesions at the application site” value (rabbits; day 27, FR901228 in AC) was “ulcers of minimal severity”, the “increased FBN” value (rabbits; days 4, 11, and 27, FR901228 in AC) was 1.6-2 × and the “skin toxicity at the application site (conclusion)” value [2] was “significant skin toxicity at the application site”.
